Results from patent US11149033B2, “Heteroaryl compound, enantiomer, diastereomer or pharmaceutically acceptable salt thereof, and antiviral composition containing same as active ingredient” (priority 2016, dated 2021).
Like-named read-outs stand apart in the source and are kept apart here.

Experiments:
[1] = system: B/Florida/04/2006; experiment: Antiviral activity (drug efficacy evaluation by concentration) against B/Florida/04/2006; type: cell-based, B type influenza virus
[2] = system: A/California/07/2009 (H1N1); experiment: Antiviral activity (drug efficacy evaluation by concentration) against A/California/07/2009 (H1N1); type: cell-based, A type influenza virus; conditions: Influenza A virus
[3] = system: A/Perth/16/2009 (H3N2); experiment: Antiviral activity (drug efficacy evaluation by concentration) against A/Perth/16/2009 (H3N2); type: cell-based, A type influenza virus; conditions: Influenza A virus
[4] = in vitro
[5] = read-out: EC50 B/Florida/04/2006, B/Florida/04/2006
[6] = H1N1, A/California/07/2009 (H1N1), read-out: EC50 A/California/07/2009 (H1N1)
[7] = H3N2, A/Perth/16/2009 (H3N2), read-out: EC50 A/Perth/16/2009 (H3N2)
[8] = CC50 B/Florida/04/2006, cytotoxicity in the B/Florida/04/2006 assay
[9] = CC50, third EC50/CC50 column pair (c7), beside the EC50 of c6

Cc1cccc(C)c1Nc1nnc(C(O)c2ccc(F)c(Cl)c2)o1 (stereo not drawn) [Compound 79, (3-chloro-4-fluorophenyl)(5-((2,6-dimethylphenyl)amino)-1,3,4-oxadiazol-2-yl)methanol]
EC50 [1, 5]: > 50 µM
EC50 [2, 6]: > 50 µM
EC50 [3, 7]: > 50 µM
melting point: 185.8 °C
CC50 [4, 8]: > 50 µM

Brc1ccc(Cc2nnc(/C=C/c3ccccc3-c3ccccc3)o2)cc1 [Compound 126, (E)-2-(2-([1,1′-biphenyl]-2-yl)vinyl)-5-(4-bromobenzyl)-1,3,4-oxadiazole]
EC50 [1]: > 50 µM
EC50 ([2]; H1N1, read-out: EC50): 45.7 µM
EC50 ([3]; H3N2, read-out: EC50): > 50 µM
melting point: 87.4 °C
CC50 ([4]; CC50, beside the EC50 of c2): > 50 µM
CC50 ([4]; CC50, beside the EC50 of c4): > 50 µM
CC50 [4, 9]: > 50 µM

COc1ccccc1/C=C/c1nnc(Cc2ccc(Br)cc2)o1 [Compound 163, 2-(4-bromobenzyl)-5-(2-methoxystyryl)-1,3,4-oxadiazole]
EC50 [1]: > 50 µM
EC50 ([2]; H1N1, read-out: EC50): 32.3 µM
melting point: 106.3 °C
CC50 ([4]; CC50, beside the EC50 of c2): > 50 µM
CC50 ([4]; CC50, beside the EC50 of c4): > 50 µM
CC50 [4, 9]: > 50 µM

c1ccc(Nc2nnc(SCc3ccccc3-c3ccccc3)o2)cc1 [Compound 71, 5-(([1,1′-biphenyl]-2-ylmethyl)thio)-N-phenyl-1,3,4-oxadiazol-2-amine]
EC50 [1, 5]: 22.8 µM
EC50 [2, 6]: 21 µM
EC50 [3, 7]: 14.2 µM
melting point: 172.1 °C
CC50 [4, 8]: 6.53 µM

Cc1ccccc1CCc1nnc(Nc2ccc(Br)c(F)c2)o1 [Compound 91, N-(4-bromo-3-fluorophenyl)-5-(2-methylphenethyl)-1,3,4-oxadiazol-2-amine]
EC50 [1]: 19.3 µM
EC50 ([2]; H1N1, read-out: EC50): 9.13 µM
EC50 ([3]; H3N2, read-out: EC50): 8.3 µM
melting point: 151.6 °C
CC50 ([4]; CC50, beside the EC50 of c2): 6.03 µM
CC50 ([4]; CC50, beside the EC50 of c4): 15.7 µM
CC50 [4, 9]: 6.63 µM

Oc1cccc(Cc2nnc(/C=C/c3ccc(F)cc3Cl)o2)c1 [Compound 201, (E)-3-((5-(2-chloro-4-fluorostyryl)-1,3,4-oxadiazol-2-yl)methyl)phenol]
EC50 [1]: 3.7 µM
EC50 ([2]; H1N1, read-out: EC50): 3.25 µM
EC50 ([3]; H3N2, read-out: EC50): 3.05 µM
melting point: 152.7 °C
CC50 ([4]; CC50, beside the EC50 of c2): > 50 µM
CC50 ([4]; CC50, beside the EC50 of c4): > 50 µM
CC50 [4, 9]: > 50 µM

Cc1cccc(C)c1Nc1nnc(C(=O)c2ccccc2)o1 [Compound 76, (5-((2,6-dimethylphenyl)amino)-1,3,4-oxadiazol-2-yl)(phenyl)methanone]
EC50 [1, 5]: > 50 µM
EC50 [2, 6]: 14.1 µM
EC50 [3, 7]: 14.1 µM
melting point: 236.1 °C
CC50 [4, 8]: > 50 µM

Fc1ccc(/C=C/c2nnc(Cc3cccc(Br)c3)o2)cc1 [Compound 188, 2-(3-bromobenzyl)-5-(4-fluorostyryl)-1,3,4-oxadiazole]
EC50 [1]: 12.2 µM
EC50 ([2]; H1N1, read-out: EC50): 9.58 µM
EC50 ([3]; H3N2, read-out: EC50): 11.6 µM
melting point: 95.3 °C
CC50 ([4]; CC50, beside the EC50 of c2): > 50 µM
CC50 ([4]; CC50, beside the EC50 of c4): > 50 µM
CC50 [4, 9]: > 50 µM

Fc1ccccc1/C=C/c1nnc(Cc2cccc(Cl)c2)o1 [Compound 187, 2-(3-chlorobenzyl)-5-(2-fluorostyryl)-1,3,4-oxadiazole]
EC50 [1]: 1.7 µM
EC50 ([2]; H1N1, read-out: EC50): 1.89 µM
EC50 ([3]; H3N2, read-out: EC50): 1.51 µM
melting point: 117.3 °C
CC50 ([4]; CC50, beside the EC50 of c2): > 50 µM
CC50 ([4]; CC50, beside the EC50 of c4): > 50 µM
CC50 [4, 9]: > 50 µM

Brc1ccc(Cc2nnc(/C=C/c3cccc4ccccc34)o2)cc1 [Compound 197, 2-(4-bromobenzyl)-5-(2-(naphthalen-1-yl)vinyl)-1,3,4-oxadiazole]
EC50 [1]: 44.1 µM
EC50 ([2]; H1N1, read-out: EC50): 26.9 µM
EC50 ([3]; H3N2, read-out: EC50): 46.1 µM
melting point: 116 °C
CC50 ([4]; CC50, beside the EC50 of c2): > 50 µM
CC50 ([4]; CC50, beside the EC50 of c4): > 50 µM
CC50 [4, 9]: > 50 µM

Cc1ccccc1CCc1nnc(Nc2ccc(C(F)(F)F)cc2)o1 [Compound 123, 5-(2-methylphenethyl)-N-(4-(trifluoromethyl)phenyl)-1,3,4-oxadiazol-2-amine]
EC50 [1]: 11 µM
EC50 ([2]; H1N1, read-out: EC50): 14.2 µM
EC50 ([3]; H3N2, read-out: EC50): 3.61 µM
melting point: 164.5 °C
CC50 ([4]; CC50, beside the EC50 of c2): 35 µM
CC50 ([4]; CC50, beside the EC50 of c4): > 50 µM
CC50 [4, 9]: > 50 µM

Cc1nn(Cc2nnc(SCc3ccccc3-c3ccc(Cl)cc3)o2)c(C)c1Br [Compound 33, 2-((4-bromo-3,5-dimethyl-1H-pyrazol-1-yl)methyl)-5-(((4′-chloro-[1,1′-biphenyl]-2-yl)methyl)thio)-1,3,4-oxadiazole]
EC50 [1, 5]: 1.46 µM
EC50 [2, 6]: 0.6 µM
EC50 [3, 7]: 0.5 µM
melting point: 84.7 °C
CC50 [4, 8]: 6.28 µM

CC(=O)c1ccccc1CSc1nnc(Cn2nc(C)c(Br)c2C)o1 [Compound 28, 1-(2-(((5-((4-bromo-3,5-dimethyl-1H-pyrazol-1-yl)methyl)-1,3,4-oxadiazol-2-yl)thio)methyl)phenyl)ethan-1-one]
EC50 [1, 5]: > 50 µM
EC50 [2, 6]: > 50 µM
EC50 [3, 7]: > 50 µM
melting point: 63.7 °C
CC50 [4, 8]: > 50 µM

Brc1ccc(Cc2nnc(/C=C/c3ccccc3C3CCCCC3)o2)cc1 [Compound 111, 2-(4-bromobenzyl)-5-(2-cyclohexylstyryl)-1,3,4-oxadiazole]
EC50 [1]: 41.3 µM
EC50 ([2]; H1N1, read-out: EC50): 31.8 µM
EC50 ([3]; H3N2, read-out: EC50): 34.3 µM
melting point: 117.1 °C
CC50 ([4]; CC50, beside the EC50 of c2): 32.5 µM
CC50 ([4]; CC50, beside the EC50 of c4): > 50 µM
CC50 [4, 9]: > 50 µM

[O-][S+](Cc1ccccc1-c1ccccc1)c1nnc(Nc2ccc(Br)cc2)o1 (stereo not drawn) [Compound 63, 5-(([1,1′-biphenyl]-2-ylmethyl)sulfinyl)-N-(4-bromophenyl)-1,3,4-oxadiazol-2-amine]
EC50 [1, 5]: 7.06 µM
EC50 [2, 6]: 2.61 µM
EC50 [3, 7]: 6.05 µM
melting point: 199 °C
CC50 [4, 8]: > 14.6 µM

O=C(c1ccccc1)c1nnc(Cc2ccc(Br)cc2)o1 [Compound 64, (5-(4-bromobenzyl)-1,3,4-oxadiazol-2-yl)(phenyl)methanone]
EC50 [1, 5]: 40.5 µM
EC50 [2, 6]: 5.97 µM
EC50 [3, 7]: > 50 µM
melting point: 139.9 °C
CC50 [4, 8]: > 50 µM

Cc1nn(Cc2nnc(SCc3ccc(-c4ccccc4)cc3)o2)c(C)c1Br [Compound 2, 2-(([1,1′-biphenyl]-4-ylmethyl)thio)-5-((4-bromo-3,5-dimethyl-1H-pyrazol-1-yl)methyl)-1,3,4-oxadiazole]
EC50 [1, 5]: > 50 µM
EC50 [2, 6]: 47.5 µM
EC50 [3, 7]: 46.7 µM
melting point: 135.9 °C
CC50 [4, 8]: > 50 µM

Fc1ccc(/C=C/c2nnc(Cc3ccccc3)o2)c(Cl)c1 [Compound 158, (E)-2-benzyl-5-(2-chloro-4-fluorostyryl)-1,3,4-oxadiazole]
EC50 [1]: > 50 µM
EC50 ([2]; H1N1, read-out: EC50): > 50 µM
EC50 ([3]; H3N2, read-out: EC50): > 50 µM
melting point: 125.9 °C
CC50 ([4]; CC50, beside the EC50 of c2): > 50 µM
CC50 ([4]; CC50, beside the EC50 of c4): > 50 µM
CC50 [4, 9]: > 50 µM

FC(F)(F)c1ccc(Cl)c(/C=C/c2nnc(Cc3cccc(Br)c3)o2)c1 [Compound 199, 2-(3-bromobenzyl)-5-(2-chloro-5-(trifluoromethyl)styryl)-1,3,4-oxadiazole]
EC50 [1]: 9.89 µM
EC50 ([2]; H1N1, read-out: EC50): 8.55 µM
EC50 ([3]; H3N2, read-out: EC50): 6.3 µM
melting point: 106.9 °C
CC50 ([4]; CC50, beside the EC50 of c2): > 50 µM
CC50 ([4]; CC50, beside the EC50 of c4): > 50 µM
CC50 [4, 9]: > 50 µM

Fc1ccc(/C=C/c2nnc(Cc3ccc(Br)c(F)c3)o2)c(Cl)c1 [Compound 184, (E)-2-(4-bromo-3-fluorobenzyl)-5-(2-chloro-4-fluorostyryl)-1,3,4-oxadiazole]
EC50 [1]: > 50 µM
EC50 ([2]; H1N1, read-out: EC50): > 50 µM
EC50 ([3]; H3N2, read-out: EC50): > 50 µM
melting point: 166.2 °C
CC50 ([4]; CC50, beside the EC50 of c2): > 50 µM
CC50 ([4]; CC50, beside the EC50 of c4): > 50 µM
CC50 [4, 9]: > 50 µM

COC(=O)c1ccccc1CSc1nnc(Cn2nc(C)c(Br)c2C)o1 [Compound 37, methyl 2-(((5-((4-bromo-3,5-dimethyl-1H-pyrazol-1-yl)methyl)-1,3,4-oxadiazol-2-yl)thio)methyl)benzoate]
EC50 [1, 5]: > 50 µM
EC50 [2, 6]: 37.8 µM
EC50 [3, 7]: 41.8 µM
melting point: 123.6 °C
CC50 [4, 8]: > 50 µM

Cc1nn(Cc2nnc([S+]([O-])Cc3ccccc3-c3ccccc3)o2)c(C)c1Br (stereo not drawn) [Compound 12, 2-(([1,1′-biphenyl]-2-ylmethyl)sulfinyl)-5-((4-bromo-3,5-dimethyl-1H-pyrazol-1-yl)methyl)-1,3,4-oxadiazole]
EC50 [1, 5]: 2.61 µM
EC50 [2, 6]: 2.51 µM
EC50 [3, 7]: 3.26 µM
melting point: 48.2 °C
CC50 [4, 8]: 7.81 µM

Cc1nn(Cc2nnc(SCc3ccccc3-c3ccccc3)o2)c(C)c1Br [Compound 1, 2-(([1,1′-biphenyl]-2-ylmethyl)thio)-5-((4-bromo-3,5-dimethyl-1H-pyrazol-1-yl)methyl)-1,3,4-oxadiazole]
EC50 [1, 5]: 0.98 µM
EC50 [2, 6]: 0.77 µM
EC50 [3, 7]: 1.15 µM
CC50 [4, 8]: 41.3 µM

Cc1nn(Cc2nnc(SCc3ccccc3-c3ccoc3)o2)c(C)c1Br [Compound 34, 2-((4-bromo-3,5-dimethyl-1H-pyrazol-1-yl)methyl)-5-((2-(furan-3-yl)benzyl)thio)-1,3,4-oxadiazole]
EC50 [1, 5]: 4.48 µM
EC50 [2, 6]: 1.4 µM
EC50 [3, 7]: 1.8 µM
CC50 [4, 8]: 22.8 µM

CC(C)Cc1ccc(C(C)c2nnc(/C=C/c3ccccc3C(C)C)o2)cc1 (stereo not drawn) [Compound 148, 2-(1-(4-isobutylphenyl)ethyl)-5-(2-isopropylstyryl)-1,3,4-oxadiazole]
EC50 [1]: 45.1 µM
EC50 ([2]; H1N1, read-out: EC50): 39.8 µM
EC50 ([3]; H3N2, read-out: EC50): 38.9 µM
CC50 ([4]; CC50, beside the EC50 of c2): > 50 µM
CC50 ([4]; CC50, beside the EC50 of c4): > 50 µM
CC50 [4, 9]: > 50 µM

COC(c1ccccc1)c1nnc(SCc2ccccc2-c2ccccc2)o1 (stereo not drawn) [Compound 97, 2-(([1,1′-biphenyl]-2-ylmethyl)thio)-5-(methoxy(phenyl)methyl)-1,3,4-oxadiazole]
EC50 [1]: 2.53 µM
EC50 ([2]; H1N1, read-out: EC50): 4.4 µM
EC50 ([3]; H3N2, read-out: EC50): 5.9 µM
CC50 ([4]; CC50, beside the EC50 of c2): 6.08 µM
CC50 ([4]; CC50, beside the EC50 of c4): 6.2 µM
CC50 [4, 9]: 6 µM
